Data as given in patent US10111847B2, “Compounds and methods for modulating vascular injury” (The Regents of the University of California, priority 2012, dated 2018).

Legend:
[1] = system: MCP-1; test: MCP-1 expression in TNF-α stimulated VSMCs by qRT-PCR; assay type: cell-based, human; conditions: 10, 100 nM; TNF-α 10 ng/ml 18 hours; P<0.05
Method: FIGS. 15A-15D. Representative images of Calcein-AM labeled U937 monocytes adhered to human sv-VSMCs pretreated with vehicle (A, B) or 7S-Maresin-1 (C) or 7S-Maresin-1 and pertussis toxin (D) for 30 min, followed by TNFα at 10 ng/ml for 4 hr (B, C, D). (E) Quantitative analysis of U937 adhesion assay in human sv-VSMCs and (F) human sv-ECs (1 ng/ml TNFα used for EC cells). P≤0.05, One-way ANOVA with Dunnett's post hoc test. *: P≤0.05 compared to control, unpaired t-test. †: P≤0.05 compared to TNFα, unpaired t-test. ‡: P≤0.05 compared to TNFα+7S-Maresin-1, unpaired t-test. (G) VSMCs were pretreated with 7S-Maresin-1 or vehicle for 30 min, followed by TNFα at 10 ng/ml for 4 hr. Whole cell lysates were blotted for VCAM-1 (Pierce Inc.) and beta-actin (Sigma). VCAM-1 and beta-actin western blotting image is representative of three independent experiments. Bar graph represents net quantitative densitometry analysis. N=3. P=0.06, One-way ANOVA with Kruskal Wallis nonparametric test. P=0.07 of TNFα, compared to control, Mann Whitney test. P=0.20 of 7S-Maresin-1 at 10 nm and 100 nm compared to TNFα, Mann Whitney test. Error bars: SEM. […] Expression of MCP-1 was measured by qRT-PCR, and normalized to unstimulated cells (n=3, results are mean±SEM, P<0.05 for Mar-1 (10 and 100 nM) vs TNF alone, unpaired t-test).

[2] = system: carotid artery; test: Mouse carotid artery ligation model, neointima formation; assay type: in vivo, FVB Mice; conditions: intraperitoneal 100 ng/dose on days 0, 1, 3, 5 and 7; sacrificed at 14 days
Method: To examine the potential therapeutic effects of systemic administration of pro-resolving mediators in acute vascular injury, a standardized mouse model of carotid ligation was employed. FVB Mice (N=23) were treated with intraperitoneal administration of RvD2 (100 ng/dose), 7R Mar-1 (100 ng/dose) or vehicle on days 0 (4 hrs prior to carotid injury), 1, 3, 5 and 7. Total dose received was 500 ng/mouse. Unilateral carotid ligation was performed as a standardized model of vascular injury, induced by low shear. Animals were then sacrificed at 14 days and perfusion-fixed vessels explanted for analysis. Following elastin staining, neointima (NI) and medial (M) compartments were measured by a blinded observer, and ratios (area and average wall thickness) calculated. Analysis was performed at mid CCA level (2.5 mm from ligature).
FIG. 22. (A)-(C), depict a cross-section of a carotid artery at mid CCA level (2.5 mm from ligature) from carotid ligation mouse model administered vehicle (A), RvD2 (B), or 7R-Mar-1 (C). (D)-(E) depict NUM ratio of the cross-section of the carotid artery at mid CCA level from carotid ligation mouse model administered vehicle, RvD2, or 7R-Mar-1. […]

[3] = system: IKKα/β subunit; test: TNFα induced phosphorylation of IKKα/β in sv-VSMCs, western blot; assay type: cell-based, human; conditions: 100 nm, 30 min; TNFα 10 ng/ml 15 min
Method: (§1) Mar-1. VSMCs and ECs were lysed in buffer (20 mM Tris-Hcl, 137 mM NaCl, 10% Glycerol, 1% NP-40) with protease and phosphatase inhibitors (Halt inhibitor capsules, Pierce, Inc) by sonication on ice. The lysates were instantly snap frozen in liquid nitrogen and thawed back later for western blotting. After centrifugation (15,000 g for 20 minutes), the whole cell extract (supernatant) was collected and was heated at 100° C. in Laemlli buffer for 6 minutes. Lysates were run on Mini-Protean TGX gels
(§2) (Biorad) and transferred on PVDF membranes which were probed with appropriate primary and secondary antibodies and visualized for quantitation using q-dot nanocrystals (Life Technologies, Inc).
(§3) Cells were pretreated with 100 nm of 7S/7R-Maresin-1 for 30 min, followed by TNFα (10 ng/ml for VSMC and 1 ng/ml for EC) for 15 min. Whole cell lysates were collected and probed for pan and phospho IKK (Cell Signaling Inc.).
(§4) FIG. 18. IKK-phospho and total IKK western blotting image is representative of three independent experiments. Bar graph represents net quantitative densitometry analysis. N=3. P≤0.05, One-way ANOVA with Dunnett's post hoc test. *: P≤0.05 compared to control, unpaired t-test. †: P≤0.05 compared to TNFα, unpaired t-test. Error bars: SEM.

[4] = system: human saphenous vein vascular smooth muscle (sv-VSMC) cells; test: TNFα induced superoxide production (DHE) in sv-VSMC (Maresin-1); assay type: cell-based; conditions: 100 nM; TNFα 10 ng/ml 4 hr
Method: Mar-1. Cells were grown in 8-well chamber slides at a density of 15000 cells/well for 2 days for VSMCs and 50000 cells/well for 2 days for ECs in a 96 well plate. After treatments, cells were incubated with dihydroethidium (DHE, 3 μM, Invitrogen) or CellRox (Invitrogen Inc, 5 μM for ECs) in media for 30 minutes at 37° C. in a humidified chamber with 5% CO2 protected from light. DAPI nuclear counter staining was utilized for DHE staining. For DHE, fluorescence was detected with TRITC filter allowing the detection of the DHE emission wavelength of 590-620 nm. Fluorescence quantitation was performed using ImageJ analysis software. For ECs, fluorescence measurements were taken using a Spectramax M2e plate reader.
FIGS. 13A-13D. Representative merged images of DHE staining, counterstained with DAPI. (A), Negative control. (B), TNFα at 10 ng/ml for 4 hr. […] (E) Quantitative comparison of DHE staining intensity in the nucleus of human saphenous vein vascular smooth muscle (sv-VSMC) cells, treated with TNFα and 7S and 7R-Maresin-1 with and without pertussis toxin. (F) Quantitative comparison of cellular ROS production by CellRox (Life technologies, Carlsbad, Calif.) in human saphenous vein endothelial (EC) cells treated with TNFα (1 ng/nil) and 7S-Maresin-1 (N>=3). […]

[5] = system: IKKα/β subunit; test: TNFα induced phosphorylation of IKKα/β in sv-ECs, western blot; assay type: cell-based, human; conditions: 100 nm, 30 min; TNFα 1 ng/ml 15 min
Method: as §1, §2, §3, §4

[6] = system: p65 subunit; test: Nuclear translocation of p65 subunit in sv-VSMCs (immunofluorescence); assay type: cell-based, human; conditions: 100 nm, 30 min; TNFα 10 ng/ml 2 hrs
Method: Immunofluorescence for p65 (RelA): 15000 VSMCs or 30000 ECs were seeded on a 8-well chamber slide. Cells received 30 min of Maresin-1 pretreatment, followed by TNF-α for 2 hr. Cells were fixed in 2% paraformaldehyde, followed by permeabilization with ice-cold acetone (10 min) and 1% Triton X-100 (20 min). Cells were incubated overnight in a humidified chamber with anti-p65 antibody (Santa Cruz Biotechnology Inc.) followed by Alexa-fluor 488 tagged secondary antibody (Life Technologies) and were visualized under a fluorescent microscope.
FIGS. 16A-16D. VSMCs were grown in chamber slides and treated with vehicle or 100 nm of 7S or 7R-Maresin-1 with/without 10 ng/ml pertussis toxin for 30 min, followed by TNFα (10 ng/ml) for 2 hrs. Cells were fixed and subsequently stained with anti-p65 (Santa Cruz Biotechnology) and secondary antibodies (Alexa-488). (A-D) Representative images of Ctrl (A), TNFα (B), 7R-Maresin-1+TNFα (C) and 7R-Maresin-1+pertussis toxin (10 ng/ml)+TNFα. (E) Mean fluorescence of nucleus and cytoplasm were quantified from all groups and the net result of the ratio of nucleus over cytoplasmic mean fluorescence is depicted in the bar graph, as a measure of relative p65 nuclear translocation. (N>=3). […]

SMILES	MCP-1 expression by TNF-α stimulated VSMCs [1]	neointima formation following carotid artery ligation [2]	TNFα induced phosphorylation of IKKα/β subunit in human sv-VSMCs [3]	TNF-α-induced superoxide production in VSMC [4]	TNFα induced phosphorylation of IKKα/β subunit in human sv-ECs [5]	nuclear translocation of p65 subunit in human sv-VSMCs [6]
CC/C=C\C/C=C\CC(O)\C=C/C=C/C=C/C(O)C/C=C\CCC(=O)O (stereo not drawn) [Mar-1, maresin 1 (7, 14-dihydroxy DHA)]	reduced	–	–	–	–	–
CC/C=C\C/C=C\C[C@@H](O)\C=C/C=C/C=C/[C@@H](O)C/C=C\CCC(=O)O [7R-Maresin-1, 7R,14S-dihydroxydocosa-4Z,8E,10E,12Z,16Z,19Z-hexaenoic acid]	–	Reduces	Reduce	Reduce	Reduce	Inhibit
